Source: patent US8299074B2, “P38 MAP kinase inhibitors” (RespiVert Ltd., priority 2008, dated 2012)
pEC50, pIC50: −log10 of the molar value. Read-outs that look alike come from different tables or passages of the source.

How the values were obtained:
[1] = system: Differentiated U937 cells; assay: MTT assay (cell viability); format: cell-based, human
Experimental: MTT Assay Differentiated U937 cells were pre-incubated with compound for 4 hrs in 5% FCS or 10% FCS for 24 hrs. […] After 1 hr incubation, the media were removed, 200 ul of DMSO added to each well and the plates were shaken lightly for 1 h prior to reading the absorbance at 550 nm. The percentage loss of cell viability was calculated for each well relative to vehicle (0.5% DMSO)-treatment. Consequently an apparent increase in cell viability for drug treatment relative to vehicle is tabulated as a negative percentage.

U937 cells [2] = assay: LPS-induced TNF alpha release in U937 cells; format: cell-based
Experimental: (§1) LPS-Induced TNF Alpha/IL-8 Release in U937 Cells: Potency U937 cells, human monocytic cell line, were differentiated to macrophage-type cells by incubation with phorbol myristate acetate (PMA; 100 ng/ml) for 48 to 72 hours. Cells were pre-incubated with final concentrations of compound for 2 hrs. […] Coli: O111:B4, Sigma) for 4 hrs, and the supernatant collected for determination of TNFα and IL-8 concentration by sandwich ELISA (Duo-set, R&D systems). […] The inhibition of IL-8 production was calculated at each concentration of test compound by comparison with vehicle control.

U937 cells [3] = assay: LPS-induced IL-8 release in U937 cells; format: cell-based; conditions: Homo sapiens, read-out: DU937 (LPS) IL-8 IC50
Experimental: as §1

BEAS2B cells = assay: Poly I:C-induced ICAM-1 induction in BEAS2B cells; format: cell-based; conditions: Homo sapiens, BEAS-2B, read-out: BEAS2B (polyIC) ICAM1 IC50
Experimental: Poly I:C-Induced ICAM-1 Induction in BEAS2B Cells: Potency Poly I:C (1 ug/ml) (Invivogen Ltd., San Diego, Calif.) was transfected into BEAS2B cells (human bronchial epithelial cells, ATCC) with Oligofectamine (Invitrogen, Carlsbad, Calif.). Cells were pre-incubated with final concentrations of compound for 2 hrs. The level of ICAM1 expression on the cell surface was determined by cell-based ELISA. Briefly, at 18 hrs after poly I:C transfection, cells were fixed with 4% formaldehyde in PBS. After quenching endogenous peroxidase by adding 0.1% sodium azide and 1% hydrogen peroxide, cells were washed with wash-buffer (0.1% Tween in PBS: PBS-Tween). After blocking the wells with 5% milk in PBS-Tween for 1 hr, the cells were incubated with anti-human ICAM-1 antibody (Cell Signaling Technology, Danvers, Mass.) in 1% BSA PBS overnight at 4° C. Cells were washed with PBS-Tween and incubated with the secondary antibody (HRP-conjugated anti-rabbit IgG, Dako Ltd., Glostrup, Denmark). The ICAM-1 signal was detected by adding substrate and reading at 450 nm with a reference wavelength of 655 nm using a spectrophotometer. […] The measured OD 450-655 readings were corrected for cell number by dividing with the OD595 reading in each well.

THP-1 cells = assay: LPS-induced TNF alpha release in THP-1 cells; format: cell-based; conditions: Homo sapiens
Experimental: LPS-Induced TNF Alpha Release in THP-1 Cells: Potency […] Coli; O111:B4, Sigma) for 4 hr and the supernatant collected for determination of TNFα concentration by sandwich ELISA (Duo-set, R&D systems). The inhibition of TNFα production was calculated at each concentration by comparison with vehicle control.

p38 MAPK alpha (MAPK14) = molecular target: T1, p38 MAPK alpha (MAPK14) (Homo sapiens, UniProt Q16539); assay: Enzyme inhibition assay, p38 MAPK alpha (FRET, Z-LYTE, via MAPKAP-K2); format: biochemical; conditions: read-out: Enzyme p38α IC50
T1 construct: purchased Invitrogen
T1 sequence (Q16539 whole entry): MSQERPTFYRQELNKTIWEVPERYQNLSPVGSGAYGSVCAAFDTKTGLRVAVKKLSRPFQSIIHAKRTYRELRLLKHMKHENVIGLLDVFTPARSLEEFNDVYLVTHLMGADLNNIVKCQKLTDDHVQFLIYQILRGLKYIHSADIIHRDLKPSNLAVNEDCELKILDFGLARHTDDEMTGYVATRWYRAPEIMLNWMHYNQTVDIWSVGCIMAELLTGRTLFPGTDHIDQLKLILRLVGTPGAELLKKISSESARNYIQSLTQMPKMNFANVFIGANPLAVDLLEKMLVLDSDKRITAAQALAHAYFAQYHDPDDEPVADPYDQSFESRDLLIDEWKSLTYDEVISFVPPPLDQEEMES

[4] = Table 2, loss of cell viability, test conducted at 10 μg/ml
[5] = Homo sapiens, read-out: DU937 (LPS) TNFα REC50
[6] = THP-1, read-out: THP-1 (LPS) TNFα IC50
[7] = Homo sapiens; read-out: DU937 (LPS) TNFα REC50
[8] = THP-1, Table 2, read-out: THP-1 (LPS) TNFα IC50
[9] = Table 2, loss of cell viability at 1 μg/ml
[10] = Table 3, first MTT column, loss of cell viability at 1 μg/ml
[11] = Table 3, second MTT column, loss of cell viability at 1 μg/ml
[12] = THP-1, Table 3, read-out: THP-1 (LPS) TNFα IC50

| pEC50 (U937 cells [2]; [7]) | pIC50 (U937 cells [3]; Table 2) | pIC50 (THP-1 cells; [8]) | SMILES | DU937 (cell viability) MTT assay 4 h [1, 4] | DU937 (cell viability) MTT assay 24 h [1, 4] | pIC50 (BEAS2B cells; Table 2) | DU937 (cell viability) MTT assay 4 h [1, 10] | DU937 (cell viability) MTT assay 4 h [1, 11] | further results |
| --- | --- | --- | --- | --- | --- | --- | --- | --- | --- |
| – | – | – | COCCOCC(=O)Nc1cc(Oc2ccc(NC(=O)Nc3cc(C(C)(C)C)nn3-c3ccc(C)cc3)c3ccccc23)ccn1 [Example 1, N-(4-(4-(3-(3-tert-Butyl-1-p-tolyl-1H-pyrazol-5-yl)ureido)naphthalen-1-yloxy)pyridin-2-yl)-2-(2-methoxyethoxy)acetamide] | −^$ (<=30%) | +^$ (>30%) | – | – | – | pEC50 (U937 cells [2]; [5]): > 8.00; pIC50 (U937 cells [3]): > 5.30; pIC50 (BEAS2B cells): > 5.30; pIC50 (THP-1 cells; [6]): > 8.00 |
| > 5.30 | > 8.00 | > 8.00 | Cc1ccc(-n2nc(C(C)(C)C)cc2NC(=O)Nc2ccc(Oc3ccnc(NC(=O)C4CCOCC4)c3)c3ccccc23)cc1 [Example 2, N-(4-(4-(3-(3-tert-Butyl-1-p-tolyl-1H-pyrazol-5-yl)ureido)naphthalen-1-yloxy)pyridin-2-yl)tetrahydro-2H-pyran-4-carboxamide] | −^$ (<=30%) | +^$ (>30%) | > 8.00 | – | – | – |
| > 5.30 | > 8.00 | > 8.00 | CSCC(=O)Nc1cc(Oc2ccc(NC(=O)Nc3cc(C(C)(C)C)nn3-c3ccc(C)cc3)c3ccccc23)ccn1 [Example 3, N-(4-(4-(3-(3-tert-Butyl-1-p-tolyl-1H-pyrazol-5-yl)ureido)naphthalen-1-yloxy)pyridin-2-yl)-2-(methylthio)acetamide] | −^$ (<=30%) | +^$ (>30%) | > 5.30 | – | – | – |
| > 8.00 | > 8.00 | > 8.00 | COCCC(=O)Nc1cc(Oc2ccc(NC(=O)Nc3cc(C(C)(C)C)nn3-c3ccc(C)cc3)c3ccccc23)ccn1 [Example 4, N-(4-(4-(3-(3-tert-Butyl-1-p-tolyl-1H-pyrazol-5-yl)ureido)naphthalen-1-yloxy)pyridin-2-yl)-3-methoxypropanamide] | −^$ (<=30%) | +^$ (>30%) | > 8.00 | – | – | – |
| > 8.00 | > 8.00 | > 8.00 | Cc1ccc(-n2nc(C(C)(C)C)cc2NC(=O)Nc2ccc(Oc3ccnc(NC(=O)CO)c3)c3ccccc23)cc1 [Example 5, N-(4-(4-(3-(3-tert-Butyl-1-p-tolyl-1H-pyrazol-5-yl)ureido)naphthalen-1-yloxy)pyridin-2-yl)-2-hydroxyacetamide] | +^$ (>30%) | +^$ (>30%) | > 8.00 | – | – | pIC50 (p38 MAPK alpha (MAPK14); Table 2): > 5.30 |
| > 8.00 | > 8.00 | > 5.30 | COCC(=O)Nc1cc(Oc2ccc(NC(=O)Nc3cc(C(C)(C)C)nn3-c3ccc(C)cc3)c3ccccc23)ccn1 [Example 8, N-(4-(4-(3-(3-tert-Butyl-1-p-tolyl-1H-pyrazol-5-yl)ureido)naphthalen-1-yloxy)pyridin-2-yl)-2-methoxyacetamide] | – | – | > 8.00 | – | – | DU937 (cell viability) MTT assay 4 h [1, 9]: − (<=30%); DU937 (cell viability) MTT assay 24 h [1, 9]: + (>30%) |
| > 8.00 | > 8.00 | > 8.00 | [2H]c1c([2H])c(C([2H])([2H])[2H])c([2H])c([2H])c1-n1nc(C(C)(C)C)cc1NC(=O)Nc1ccc(Oc2ccnc(NC(=O)COC)c2)c2ccccc12 [Example 10, N-(4-(4-(3-(3-tert-butyl-1-(2,3,5,6-tetradeutero-4-(trideuteromethyl)phenyl)-1H-pyrazol-5-yl)ureido)naphthalen-1-yloxy)pyridin-2-yl)-2-methoxyacetamide] | – | – | > 8.00 | – | – | DU937 (cell viability) MTT assay 4 h [1, 9]: − (<=30%); DU937 (cell viability) MTT assay 24 h [1, 9]: + (>30%) |
| > 8.00 | > 8.00 | > 8.00 | COCC(=O)Nc1cc(Oc2ccc(NC(=O)Nc3cc(C(C)(C)C)nn3-c3ccc(C)cc3)c(C)c2)ccn1 [Example 24, N-(4-(4-(3-(3-tert-Butyl-1-p-tolyl-1H-pyrazol-5-yl)ureido)-3-methylphenoxy)pyridin-2-yl)-2-methoxyacetamide] | – | – | – | – | – | DU937 (cell viability) MTT assay 4 h [1, 9]: − (<=30%); DU937 (cell viability) MTT assay 24 h [1, 9]: + (>30%); pIC50 (p38 MAPK alpha (MAPK14); Table 2): > 5.30 |
| > 8.00 | – | – | Cc1ccc(-n2nc(C(C)(C)C)cc2NC(=O)Nc2ccc(Oc3ccnc(NC(=O)NC4CC4)c3)c3ccccc23)cc1 [Example 33, 1-(4-((2-(3-Cyclopropylureido)pyridin-4-yl)oxy)naphthalen-1-yl)-3-(3-(tert-butyl)-1-(p-tolyl)-1H-pyrazol-5-yl)urea] | – | – | – | − (<=30%) | − (<=30%) | pIC50 (BEAS2B cells; Table 3): > 5.30; pIC50 (THP-1 cells; [12]): > 8.00; pIC50 (p38 MAPK alpha (MAPK14); Table 3): > 5.30 |
| – | – | – | COCCOCC(=O)N1CCC(NC(=O)Nc2cc(Oc3ccc(NC(=O)Nc4cc(C(C)(C)C)nn4-c4ccc(C)cc4)c4ccccc34)ccn2)CC1 [Example 40, 2-(2-Methoxyethoxy)-1-(4-(3-(4-(4-(3-(3-tert-butyl-1-p-tolyl-1H-pyrazol-5-yl)ureido)naphthalen-1-yloxy)pyridin-2-yl)ureido)piperidin-1-yl)ethanone] | – | – | – | − (<=30%) | + (>30%) | pEC50 (U937 cells [2]; [5]): > 8.00; pIC50 (U937 cells [3]): > 8.00; pIC50 (BEAS2B cells): > 8.00; pIC50 (THP-1 cells; [6]): > 8.00 |
| > 5.30 | – | – | Cc1ccc(-n2nc(C(C)(C)C)cc2NC(=O)Nc2ccc(Oc3ccnc(NC(=O)NC4CCN(S(C)(=O)=O)CC4)c3)c3ccccc23)cc1 [Example 41, N-Methylsulfonyl-4-(3-(4-(4-(3-(3-tert-butyl-1-p-tolyl-1H-pyrazol-5-yl)ureido)naphthalen-1-yloxy)pyridin-2-yl)ureido)piperidine] | – | – | – | − (<=30%) | + (>30%) | pIC50 (U937 cells [3]; Table 3): > 5.30; pIC50 (THP-1 cells; [12]): > 8.00; pIC50 (p38 MAPK alpha (MAPK14); Table 3): > 8.00 |
| – | – | – | Cc1ccc(-n2nc(C(C)(C)C)cc2NC(=O)Nc2ccc(Oc3ccnc(NC(=O)NCC(=O)N4CCOCC4)c3)c3ccccc23)cc1 [Example 58, 2-(3-(4-(4-(3-(3-tert-Butyl-1-p-tolyl-1H-pyrazol-5-yl)ureido)naphthalen-1-yloxy)pyridin-2-yl)ureido)acetyl morpholine] | – | – | – | − (<=30%) | − (<=30%) | pIC50 (U937 cells [3]; Table 3): > 8.00; pIC50 (BEAS2B cells; Table 3): > 8.00; pIC50 (THP-1 cells; [12]): > 8.00; pIC50 (p38 MAPK alpha (MAPK14); Table 3): > 8.00 |
| > 8.00 | – | – | Cc1ccc(-n2nc(C(C)(C)C)cc2NC(=O)Nc2ccc(Oc3ccnc(NC(=O)NC4CC4)n3)c3ccccc23)cc1 [Example 69, 1-Cyclopropyl-3-(4-(4-(3-(3-tert-butyl-1-p-tolyl-1H-pyrazol-5-yl)ureido)naphthalen-1-yloxy)pyrimidin-2-yl)urea] | – | – | – | – | – | DU937 (cell viability) MTT assay 4 h ([1]; Table 1, MTT, loss of cell viability at 1 μg/ml): − (<=30%); DU937 (cell viability) MTT assay 4 h ([1]; Table 1, first MTT column, loss of cell viability at 1 μg/ml): − (<=30%); pIC50 (U937 cells [3]; Table 1): > 8.00; pIC50 (THP-1 cells; THP-1, Table 1, read-out: THP-1 (LPS) TNFα IC50): > 5.30; pIC50 (p38 MAPK alpha (MAPK14); Table 1): > 8.00 |
